Measurements: patent publication US20220089655A1, “NOVEL POLYPEPTIDE-MODIFYING ENZYMES AND USES THEREOF” (ETH ZURICH, priority 2018, published 2022)
Starred links: 1 amine or outer side, 2 acyl side, 3 side chain; linkers in the order of their positions; H or OH if unused. Non-standard residues stand in square brackets, D forms with d. No end group written: not given here. *: point of attachment. X1 = CC(C)C(C)[C@H](N[*:1])C(=O)[*:2]; Ile(3-Me) = CCC(C)(C)[C@H](N)C(=O)O; d(aThr) = C[C@@H](O)[C@@H](N)C(=O)O; Butanoyl(2-oxo) = CCC(=O)C(=O)*; Tle = CC(C)(C)[C@H](N)C(=O)O

Experiments:
fungi = assay: Activity towards fungi
[1] = Cytotoxic assay (MTT) against HeLa cells; format: cell-based; conditions: 3 days incubation, MTT readout
Protocol: The activity of aeronamide A was measured against HeLa cells. Stocked HeLa cells were resuspended in 10 mL HEPES buffered high glucose Dulbecco's Modified Eagle Medium (DMEM) supplemented with GlutaMAX (Gibco). Additionally, the medium contained 10% fetal calf serum (FCS) and […] gentamycin. The cells were centrifuged for 5 min at 1000×g and room temperature. The medium was discarded and the cells resuspended in 10 mL fresh medium. The cells were put in a culture dish and incubated for 3-4 days at 37° C. The cells were checked under the microscope and treated further only when 60-80% of the surface was covered with cells. The medium was removed from the culture flask and the cells were washed with 10 mL phosphate buffered saline (PBS). The PBS was discarded and the cells treated with 2 mL Trypsin-EDTA solution. When the cells were detached, 10 mL of medium was added and centrifuged for 5 min at 1000×g and room temperature. The supernatant was discarded and 10 mL fresh medium were added. 2 mL of the cell suspension were put in a fresh culture flask containing 10 mL medium. Cells healthy enough for cytotoxicity assays were counted and diluted to a 10,000 cells/mL solution. 96 well plates were filled with 200 μL cell suspension per well. All plates were incubated overnight at 37° C. […] Absorbance was measured at 570 nm and IC50 was calculated using GraphPad Prism 6 (GraphPad).

bacteria = assay: Activity towards bacteria

Substance: {Butanoyl(2-oxo)}-[Ile(3-Me)][dA][Tle][dV][X1][dV]A[dV][Tle]GA[dA]A[dA]A[dV][Tle][d(aThr)]Y[dL]G[dA]A[dD](NHMe)[Tle][dV]G[dA]A[dD](NHMe)G[d(aThr)][Tle][d(aThr)]A[dD](NHMe)A[dV]A[dD](NHMe)T[dD](NHMe)A[dV]A [Aeronamide A]
- cytotoxic activity towards fungi (fungi): not towards the bacteria and fungi
- IC50 [1]: 1.48 nM
- cytotoxic activity towards bacteria (bacteria): not towards the bacteria and fungi
